# Columns and labels:
# Format in all cases: cell-based
# [1] = system: CCRF-CEM; assay: NCI human tumor cell panel: CCRF-CEM (Leukemia); conditions: Leukemia
# [2] = system: HL-60(TB); assay: NCI human tumor cell panel: HL-60(TB) (Leukemia); conditions: Leukemia, read-out: Log10 GI50 (converted)
# [3] = system: K-562; assay: NCI human tumor cell panel: K-562 (Leukemia); conditions: K562, K-562, Leukemia
# [4] = system: MOLT-4; assay: NCI human tumor cell panel: MOLT-4 (Leukemia); conditions: MOLT-4, Leukemia
# [5] = system: RPMI-8226; assay: NCI human tumor cell panel: RPMI-8226 (Leukemia); conditions: RPMI-8226, Leukemia
# [6] = system: A549/ATCC; assay: NCI human tumor cell panel: A549/ATCC (Non-Small Cell Lung Cancer); conditions: Non-Small Cell Lung Cancer
# [7] = system: NCI-H226; assay: NCI human tumor cell panel: NCI-H226 (Non-Small Cell Lung Cancer); conditions: NCI-H226, Non-Small Cell Lung Cancer
# [8] = system: COLO 205; assay: NCI human tumor cell panel: COLO 205 (Colon Cancer); conditions: COLO 205, Colon Cancer
# [9] = system: HCT-116; assay: NCI human tumor cell panel: HCT-116 (Colon Cancer); conditions: HCT-116, Colon Cancer
# [10] = system: KM12; assay: NCI human tumor cell panel: KM12 (Colon Cancer); conditions: KM12, Colon Cancer
# [11] = system: SW-620; assay: NCI human tumor cell panel: SW-620 (Colon Cancer); conditions: SW-620, Colon Cancer
# [12] = system: SF-268; assay: NCI human tumor cell panel: SF-268 (CNS Cancer); conditions: SF-268, CNS Cancer
# [13] = system: MALME-3M; assay: NCI human tumor cell panel: MALME-3M (Melanoma); conditions: MALME-3M, Melanoma
# [14] = system: SK-MEL-5; assay: NCI human tumor cell panel: SK-MEL-5 (Melanoma); conditions: SK-MEL-5, Melanoma
# [15] = system: UACC-257; assay: NCI human tumor cell panel: UACC-257 (Melanoma); conditions: UACC-257, Melanoma
# [16] = system: UACC-62; assay: NCI human tumor cell panel: UACC-62 (Melanoma); conditions: UACC-62, Melanoma
# [17] = system: OVCAR-3; assay: NCI human tumor cell panel: OVCAR-3 (Ovarian Cancer); conditions: OVCAR-3, Ovarian Cancer
# [18] = system: OVCAR-8; assay: NCI human tumor cell panel: OVCAR-8 (Ovarian Cancer); conditions: OVCAR-8, Ovarian Cancer
# [19] = system: SK-OV-3; assay: NCI human tumor cell panel: SK-OV-3 (Ovarian Cancer); conditions: SK-OV-3, Ovarian Cancer
# [20] = system: A498; assay: NCI human tumor cell panel: A498 (Renal Cancer); conditions: A498, Renal Cancer
# [21] = system: ACHN; assay: NCI human tumor cell panel: ACHN (Renal Cancer); conditions: Renal Cancer
# [22] = system: CAKI-1; assay: NCI human tumor cell panel: CAKI-1 (Renal Cancer); conditions: CAKI-1, Renal Cancer
# [23] = system: RXF-393; assay: NCI human tumor cell panel: RXF-393 (Renal Cancer); conditions: RXF-393, Renal Cancer
# [24] = system: SN12C; assay: NCI human tumor cell panel: SN12C (Renal Cancer); conditions: Renal Cancer
# [25] = system: DU-145; assay: NCI human tumor cell panel: DU-145 (Prostate Cancer); conditions: DU-145, Prostate Cancer
# [26] = system: MCF7; assay: NCI human tumor cell panel: MCF7 (Breast Cancer); conditions: MCF7, Breast Cancer
# [27] = system: MDA-MB-231/ATCC; assay: NCI human tumor cell panel: MDA-MB-231/ATCC (Breast Cancer); conditions: Homo sapiens, MDA-MB-231, MDA-MB-231/ATCC, Breast Cancer
# [28] = system: T-47D; assay: NCI human tumor cell panel: T-47D (Breast Cancer); conditions: T47D, Breast Cancer
# [29] = read-out: Log10 GI50 (converted)
# [30] = read-out: Log10 TGI (converted)
smiles,measurement,setting,value
O=Cc1ccc(-c2ccc(-c3ccc(C=O)s3)[se]2)s1 [NSC 675345],GI50,[1]; [29],> 100 µM
same,IC (TGI),[1]; [30],> 100 µM
same,GI50,[2],> 100 µM
same,GI50,[3]; [29],30.9 µM
same,IC (TGI),[3]; [30],> 100 µM
same,GI50,[4]; [29],> 100 µM
same,IC (TGI),[4]; [30],> 100 µM
same,GI50,[5]; [29],> 100 µM
same,IC (TGI),[5]; read-out: Log10 TGI,> 100 µM
same,GI50,[6]; [29],> 100 µM
same,IC (TGI),[6]; [30],> 100 µM
same,GI50,[7]; [29],0.575 µM
same,IC (TGI),[7]; [30],2.45 µM
same,GI50,[8]; [29],33.9 µM
same,IC (TGI),[8]; [30],> 100 µM
same,GI50,[9]; [29],4.07 µM
same,IC (TGI),[9]; [30],> 100 µM
same,GI50,[10]; [29],> 100 µM
same,IC (TGI),[10]; [30],> 100 µM
same,GI50,[11]; [29],38 µM
same,IC (TGI),[11]; [30],> 100 µM
same,GI50,[12]; [29],> 100 µM
same,IC (TGI),[12]; [30],> 100 µM
same,GI50,[13]; [29],> 100 µM
same,IC (TGI),[13]; [30],> 100 µM
same,GI50,[14]; [29],> 100 µM
same,IC (TGI),[14]; [30],> 100 µM
same,GI50,[15]; [29],1.38 µM
same,IC (TGI),[15]; [30],> 100 µM
same,GI50,[16]; [29],0.347 µM
same,IC (TGI),[16]; [30],2.82 µM
same,GI50,[17]; [29],2.19 µM
same,IC (TGI),[17]; [30],> 100 µM
same,GI50,[18]; [29],> 100 µM
same,IC (TGI),[18]; [30],> 100 µM
same,GI50,[19]; [29],55 µM
same,IC (TGI),[19]; [30],> 100 µM
same,GI50,[20]; [29],0.479 µM
same,IC (TGI),[20]; [30],1.55 µM
same,GI50,[21]; [29],77.6 µM
same,IC (TGI),[21]; [30],> 100 µM
same,GI50,[22]; [29],32.4 µM
same,IC (TGI),[22]; [30],> 100 µM
same,GI50,[23]; [29],> 100 µM
same,IC (TGI),[23]; [30],> 100 µM
same,GI50,[24]; [29],0.257 µM
same,IC (TGI),[24]; [30],1.66 µM
same,GI50,[25]; [29],> 100 µM
same,IC (TGI),[25]; [30],> 100 µM
same,GI50,[26]; [29],0.724 µM
same,IC (TGI),[26]; [30],5.62 µM
same,GI50,[27]; [29],18.2 µM
same,IC (TGI),[27]; [30],> 100 µM
same,GI50,[28]; [29],79.4 µM
same,IC (TGI),[28]; [30],> 100 µM

# Source: US20040063662A1, “Selenophene anti-tumor agents” (priority 1996, published 2004)
